pEC50: −log10 of the molar value.

Consider 16 compounds from patent US10058550B2, “Methods of treating heart failure” (priority 2015, dated 2018).

One assay concerns the target human APJ receptor (Homo sapiens (Human), UniProt P35414). The assay is described as follows: biochemical. Type of assay: biochemical. The conditions noted are these: read-out: Activity hAPJ SPA EC50 IP. The procedure, abridged:
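Agonist-stimulated [35S]GTPγS (0.2 nM) binding was read by SPA after 90 min at room temperature. Buffer: 20 mM HEPES pH 7.5 with 5 mM MgCl2, 200 mM NaCl, 3 μM GDP, 0.1% BSA; membranes were from a stable human APJ CHO line. EC50 values are averages of independent runs, fitted by non-linear regression.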

Assay [1] relates to isolated perfused rat hearts. As to the kind of experiment: Load independent inotropic effects, ex vivo assay (isolated perfused rat hearts, Langendorff). The conditions noted are these: percent change over vehicle. From the text: Evidence for Load Independent Inotropic Effects with APJ Agonists using Ex Vivo Assay (Isolated Perfused Rat Hearts)
Naive Sprague Dawley® SD rats (Harlan laboratories (Livermore, Calif. USA)) were anesthetized and hearts were excised followed by cannulation in the Langendorff apparatus (Harvard apparatus, Holliston, Mass. USA) via aorta. […] The pressure of the solution causes the aortic valve to shut and the perfusate is then forced into the ostium and the coronary vessels. This allows the heart to beat for several h. A balloon was inserted into the left ventricle (LV) to measure dP/dtmax (derivative of left ventricular pressure) as an index of cardiac contractility. The APJ agonist was perfused constantly in a dose dependent manner into the heart to examine cardiac contractility.

The test system of another assay is heart failure rat model. The assay is described as follows: Cardiac contractility in vivo in heart failure rat model (MI rat model). The conditions noted are these: for MI Rat Model dP/dtmax (%): in vivo, heart failure (MI) rat model, acute administration for 30 min; for cardiac contractility as measured by dP/dtmax (derivative of left ventricular pressure): male Lewis rats, heart failure by ligation of left descending coronary artery, ejection fraction <35%, dosed acutely for 30 min. As for the experimental part: Male Lewis rats (Charles River, USA) at 2-3 months of age were used for the study. […] APJ agonists were administered dose dependently acutely for a period of 30 min.

The next assay relates to heart failure rats. The assay is described as follows: Cardiac function with APJ small molecule agonists in the presence of ACE inhibitor captopril in heart failure rats in vivo. On the set-up: species or system rat. The conditions noted are these: captopril alone, acute settings. From the text: The interaction between […] (ACE2) and Apelin biology is complicated. To investigate the interaction between the Apelin-APJ and ACE signalling pathways, we examined the improvement in cardiac function with APJ small molecule agonists in the presence of ACE inhibitor captopril in heart failure rats in vivo.

Assay [2] deals with isolated perfused rat hearts. As to the kind of experiment: Langendorff isolated perfused rat heart (left ventricular dP/dt). The following applies: ex vivo naive Sprague Dawley rat hearts, Langendorff apparatus, as a function of concentration.
The next assay concerns the target APJ/AT1R (Homo sapiens (Human), UniProt P30556+P35414). As to the kind of experiment: IP1 assay (TR-FRET) for allosteric interaction between APJ and AT1R in CHO-K1 APJ/AT1R cells. Type of assay: cell-based. The following applies: addition of losartan.

Chain of human APJ receptor (P35414 whole entry): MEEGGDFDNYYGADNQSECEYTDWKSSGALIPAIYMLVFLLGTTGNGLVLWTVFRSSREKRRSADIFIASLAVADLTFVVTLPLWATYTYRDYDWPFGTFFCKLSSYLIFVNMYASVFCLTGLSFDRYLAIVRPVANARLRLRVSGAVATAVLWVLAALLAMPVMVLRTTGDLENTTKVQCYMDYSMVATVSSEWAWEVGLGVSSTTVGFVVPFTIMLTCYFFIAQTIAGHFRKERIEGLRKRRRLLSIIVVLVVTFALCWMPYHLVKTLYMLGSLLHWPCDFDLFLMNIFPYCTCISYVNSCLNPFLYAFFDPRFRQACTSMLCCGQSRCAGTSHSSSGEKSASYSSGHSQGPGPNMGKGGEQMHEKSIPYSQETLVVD
Chain of APJ/AT1R (P35414 whole entry, looked up): as the sequence (P35414 whole entry) above
Chain of APJ/AT1R (P30556 whole entry, looked up): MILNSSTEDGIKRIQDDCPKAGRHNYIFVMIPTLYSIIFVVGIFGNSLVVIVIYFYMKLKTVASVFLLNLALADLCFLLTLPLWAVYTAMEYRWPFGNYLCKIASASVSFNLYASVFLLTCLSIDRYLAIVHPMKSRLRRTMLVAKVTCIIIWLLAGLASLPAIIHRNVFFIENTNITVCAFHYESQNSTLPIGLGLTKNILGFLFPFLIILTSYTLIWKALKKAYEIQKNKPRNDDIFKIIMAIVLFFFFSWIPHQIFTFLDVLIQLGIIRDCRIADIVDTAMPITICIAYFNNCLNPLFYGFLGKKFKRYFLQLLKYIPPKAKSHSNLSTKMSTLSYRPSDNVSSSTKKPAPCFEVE
Description for APJ/AT1R: Single and double stable recombinant cell lines were generated for human APJ and the AT1R receptor in CHO K1 cells tagged either with FLAG or hemagglutinin (HA) tag. Briefly, the CHO-K1 APJ/AT1R cells were seeded in culture medium of DMEM-F12 and 10% FBS at a density of 15 k/well in a 96 well plate overnight. The next day, the culture medium was replaced with medium containing no serum for 4 hours. The compound AngII at a range of concentrations (1 pM-10 μM) with or without different concentrations of APJ agonists were diluted in stimulation buffer and added to the cell plate. The plate was sealed and incubated for 1 hour. This was followed by addition of IP-d2 conjugate followed by europium cryptate antibody conjugate into the wells. The plate was sealed, followed with incubation for 2 hours at room temperature. Time-resolved fluorescence resonance energy (TR-FRET) at 620 nm and 665 nm was measured after 2 hours with an Envision reader. The signal ratios and delta F were calculated and the amount of IP1 produced was inversely proportional to the TR-FRET ratio, 665/620 nm.

As to `COc1cccc(OC)c1-n1c(NS(=O)(=O)[C@H](C)[C@@H](OC)c2ccc(Cl)cn2)nnc1-c1cccnc1` (single isomer, unassigned) [Example 531.0, (1S,2R)-1-(5-chloro-2-pyridinyl)-N-(4-(2,6-dimethoxyphenyl)-5-(3-pyridinyl)-4H-1,2,4-triazol-3-yl)-1-methoxy-2-propanesulfonamide or (1R,2S)-1-(5-chloro-2-pyridinyl)-N-(4-(2,6-dimethoxyphenyl)-5-(3-pyridinyl)-4H-1,2,4-triazol-3-yl)-1-methoxy-2-propanesulfonamide], the pEC50 – broadly, −log10 of the EC50, conventionally taken in molar units – on human APJ receptor is 9.70. Further, in assay [1], the “Isolated Heart Assay dP/dtmax (%)” value was found to be 4.1% and the “Isolated Heart Assay dP/dtmin (%)” value turned out to be 1.9%.
With `COc1cccc(OC)c1-n1c(NS(=O)(=O)[C@H](C)[C@@H](OC)c2ncc(Cl)cn2)nnc1-c1cncc(C)c1` (single isomer, unassigned) [Example 557.0], at human APJ receptor, the negative logarithm of the EC50 (pEC50) is 9.51. Besides, in assay [1], the “Isolated Heart Assay dP/dtmax (%)” value was determined as 17.0% and the “Isolated Heart Assay dP/dtmin (%)” value stood at 20.0%. Further, the “MI Rat Model dP/dtmax (%)” value with heart failure rat model is “No effect”.
`C[C@H](CS)C(=O)N1CCC[C@H]1C(=O)O` [Captopril, captopril]: in the assay with heart failure rats, the contractility result was “does not show a marked improvement” and the ejection fraction entry was “does not show a marked improvement”.
Regarding `COc1cccc(OC)c1-n1c(NS(=O)(=O)[C@@H](C)[C@H](O)c2ncc(C)cn2)nnc1-c1cccc(C)n1` [Example 99.0, (1R,2S)-N-(4-(2,6-dimethoxyphenyl)-5-(6-methylpyridin-2-yl)-4H-1,2,4-triazol-3-yl)-1-hydroxy-1-(5-methylpyrimidin-2-yl)propane-2-sulfonamide], in assay [2], the “left ventricular dP/dtmax (load independent cardiac contractility)” value (from here on “left ventricular dP/dtmax”) was “increases load independent cardiac contractility” and the “left ventricular dP/dtmin (load independent cardiac relaxation)” value (“left ventricular dP/dtmin” below) is on record as “increases load independent cardiac relaxation”. For the same compound, the negative logarithm of the EC50 (pEC50) at human APJ receptor is 8.64. Also, in the assay on heart failure rat model, the “cardiac contractility as measured by dP/dtmax (derivative of left ventricular pressure)” value (shortened to “cardiac contractility as measured”) is “increase in cardiac contractility”.
Turning to `CCO[C@H](c1ncc(C)cn1)[C@H](C)S(=O)(=O)Nc1nnc(-c2cccnc2)n1-c1c(OC)cccc1OC` [Example 109.0, (1R,2S)-N-(4-(2,6-dimethoxyphenyl)-5-(pyridin-3-yl)-4H-1,2,4-triazol-3-yl)-1-ethoxy-1-(5-methylpyrimidin-2-yl)propane-2-sulfonamide], in assay [2], the “left ventricular dP/dtmax” value is “increases load independent cardiac contractility” and the “left ventricular dP/dtmin” value is “increases load independent cardiac relaxation”. Also, on human APJ receptor, the pEC50 was 9.07. Also, in assay [1], the “Isolated Heart Assay dP/dtmax (%)” value is reported as 15% and the “Isolated Heart Assay dP/dtmin (%)” value turned out to be 25%. Besides, in the assay on heart failure rat model, the “MI Rat Model dP/dtmax (%)” value was determined as 20% and the “cardiac contractility as measured” value is given as “increase in cardiac contractility”.
With `COc1cccc(OC)c1-n1c(NS(=O)(=O)[C@@H](C)[C@H](C)c2ncc(C)cn2)nnc1-c1cncc(C)c1` [Example 263.0, (2S,3R)—N-(4-(2,6-dimethoxyphenyl)-5-(5-methylpyridin-3-yl)-4H-1,2,4-triazol-3-yl)-3-(5-methylpyrimidin-2-yl)butane-2-sulfonamide], in assay [2], the “left ventricular dP/dtmax” value is “increases load independent cardiac contractility” and the “left ventricular dP/dtmin” value is “increases load independent cardiac relaxation”. Besides, in the assay with heart failure rat model, the “cardiac contractility as measured” value is “increase in cardiac contractility”.
Turning to `COc1cccc(OC)c1-n1c(NS(=O)(=O)[C@@H](C)[C@H](O)c2ncc(C)cn2)nnc1-c1cncc(C)c1` [Example 371.0, (1R,2S)—N-(4-(2,6-dimethoxyphenyl)-5-(5-methylpyridin-3-yl)-4H-1,2,4-triazol-3-yl)-1-hydroxy-1-(5-methylpyrimidin-2-yl)propane-2-sulfonamide], in assay [2], the “left ventricular dP/dtmax” value was “increases load independent cardiac contractility” and the “left ventricular dP/dtmin” value was “increases load independent cardiac relaxation”.
With `COc1cccc(OC)c1-n1c(NS(=O)(=O)[C@@H](C)[C@H](C)c2ncc(C)cn2)nnc1-c1cccnc1` [Example 586.0, (2S,3R)—N-(4-(2,6-dimethoxyphenyl)-5-(3-pyridinyl)-4H-1,2,4-triazol-3-yl)-3-(5-methyl-2-pyrimidinyl)-2-butanesulfonamide], in assay [2], the “left ventricular dP/dtmax” value is listed as “increases load independent cardiac contractility” and the “left ventricular dP/dtmin” value is “increases load independent cardiac relaxation”. For the same compound, on human APJ receptor, the negative-log EC50 (pEC50) is 9.52. Further, the “cardiac contractility as measured” value in the assay on heart failure rat model is given as “increase in cardiac contractility”.
Take `Cc1cnc([C@@H](C)[C@H](C)S(=O)(=O)Nc2nnc(-c3cncc(C)c3)n2-c2c(F)cccc2F)nc1` [Example 826.0, (2S,3R)-N-(4-(2,6-difluorophenyl)-5-(5-methyl-3-pyridinyl)-4H-1,2,4-triazol-3-yl)-3-(5-methyl-2-pyrimidinyl)-2-butanesulfonamide, (2R,3S)-N-(4-(2,6-difluorophenyl)-5-(5-methyl-3-pyridinyl)-4H-1,2,4-triazol-3-yl)-3-(5-methyl-2-pyrimidinyl)-2-butanesulfonamide]: in assay [1], the “Isolated Heart Assay dP/dtmax (%)” value was determined as 6.02% and the “Isolated Heart Assay dP/dtmin (%)” value was found to be 5.16%.
`COc1cccc(-c2nnc(NS(=O)(=O)[C@@H](C)[C@H](C)c3ccc(Cl)cn3)n2C2CCOCC2)n1` [Example 840.0, (2S,3R)-3-(5-chloro-2-pyridinyl)-N-(5-(6-methoxy-2-pyridinyl)-4-(tetrahydro-2H-pyran-4-yl)-4H-1,2,4-triazol-3-yl)-2-butanesulfonamide]: on human APJ receptor, the pEC50 is 7.89.
As to `COc1cccc(-c2nnc(NS(=O)(=O)[C@@H](C)[C@H](OC)c3ccc(Cl)cn3)n2C2CCOCC2)n1` [Example 841.0, (1R,2S)-1-(5-chloro-2-pyridinyl)-1-methoxy-N-(5-(6-methoxy-2-pyridinyl)-4-(tetrahydro-2H-pyran-4-yl)-4H-1,2,4-triazol-3-yl)-2-propanesulfonamide], the negative-log EC50 (pEC50) on human APJ receptor was 8.07.
The same measure, in the same setting: in the case of `COc1cnc([C@@H](C)[C@H](C)S(=O)(=O)Nc2nnc(-c3cccc(OC)n3)n2C2CCOCC2)nc1` [Example 842.0, (2S,3R)-N-(5-(6-methoxy-2-pyridinyl)-4-(tetrahydro-2H-pyran-4-yl)-4H-1,2,4-triazol-3-yl)-3-(5-methoxy-2-pyrimidinyl)-2-butanesulfonamide] it was 6.85; in that of `COc1cccc(-c2nnc(NS(=O)(=O)[C@@H](C)[C@H](C)c3cnc(C)cn3)n2C2CCOCC2)n1` [Example 843.0, (2S,3R)-N-(5-(6-methoxy-2-pyridinyl)-4-(tetrahydro-2H-pyran-4-yl)-4H-1,2,4-triazol-3-yl)-3-(5-methyl-2-pyrazinyl)-2-butanesulfonamide], 6.01.
The same measure, in the same setting: with `COc1cnc([C@@H](C)[C@H](C)S(=O)(=O)Nc2nnc(-c3cccc(OC)n3)n2C2CCOCC2)cn1` [Example 844.0, (2S,3R)-3-(5-methoxy-2-pyrazinyl)-N-(5-(6-methoxy-2-pyridinyl)-4-(tetrahydro-2H-pyran-4-yl)-4H-1,2,4-triazol-3-yl)-2-butanesulfonamide] the figure was 7.07.
For `CCCCc1nc(Cl)c(CO)n1Cc1ccc(-c2ccccc2-c2nn[nH]n2)cc1` [losartan], the “positive cooperativity induced by APJ small molecule agonists in the presence of AngII” value on APJ/AT1R was “relieved this cooperativity”.
For the compound “(2S)-N-(4-(2,6-dimethoxyphenyl)-5-(5-methoxy-2-pyridinyl)-4H-1,2,4-triazol-3-yl)-1-(5-fluoro-2-pyrimidinyl)-2-propanesulfonamide and (2R)-N-(4-(2,6-dimethoxyphenyl)-5-(5-methoxy-2-pyridinyl)-4H-1,2,4-triazol-3-yl)-1-(5-fluoro-2-pyrimidinyl)-2-propanesulfonamide [Example 153.0]”, the negative-log EC50 (pEC50) at human APJ receptor was 6.80.
